According to PubChem BioAssay AID248 (DTP/NCI, 2004):
“And” between values parts separate entries of the source, which are not always exact repeats. Equal entries are not always repeated. Inconclusive results and toxic doses are left out. Rule as the data show it: active = T/C of 150% or more; inactive = T/C below 125%.

Test system: L1210 leukemia ip in BDF1 mice, survival T/C
Assay: NCI In Vivo Anticancer Drug Screen. Data for tumor model L1210 Leukemia (intraperitoneal) in B6D2F1 (BDF1) mice
Conditions: endpoint: mean survival time, higher = longer survival
In short: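 Mice bearing the transplanted tumor received compound or vehicle. Survival of the treated group was divided by that of the vehicle-treated control group to give the ratio.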

[1] = dose: 100.0 mg/kg/injection, schedule: Q01DX009 (ip), vehicle: saline with Tween-80
[2] = dose: 200.0 mg/kg/injection, schedule: Q01DX009 (ip), vehicle: saline with Tween-80
[3] = dose: 400.0 mg/kg/injection, schedule: Q01DX009 (ip), vehicle: saline with Tween-80
[4] = dose: 100.0 mg/kg/injection, schedule: Q04DX003 (ip), vehicle: Klucel (hydroxypropylcellulose) (HPC)
[5] = dose: 200.0 mg/kg/injection, schedule: Q04DX003 (ip), vehicle: Klucel (hydroxypropylcellulose) (HPC)
[6] = dose: 50.0 mg/kg/injection, schedule: Q01DX001 (ip), vehicle: carboxymethylcellulose (CMC)
[7] = dose: 100.0 mg/kg/injection, schedule: Q01DX001 (ip), vehicle: carboxymethylcellulose (CMC)
[8] = dose: 200.0 mg/kg/injection, schedule: Q01DX001 (ip), vehicle: carboxymethylcellulose (CMC)
[9] = dose: 400.0 mg/kg/injection, schedule: Q01DX001 (ip), vehicle: carboxymethylcellulose (CMC)
[10] = dose: 100.0 mg/kg/injection, schedule: Q01DX009 (ip), vehicle: Klucel (hydroxypropylcellulose) (HPC)
[11] = dose: 200.0 mg/kg/injection, schedule: Q01DX009 (ip), vehicle: Klucel (hydroxypropylcellulose) (HPC)
[12] = dose: 400.0 mg/kg/injection, schedule: Q01DX009 (ip), vehicle: Klucel (hydroxypropylcellulose) (HPC)
[13] = dose: 400.0 mg/kg/injection, schedule: Q04DX003 (ip), vehicle: Klucel (hydroxypropylcellulose) (HPC)
[14] = dose: 100.0 mg/kg/injection, schedule: Q01DX001 (ip), vehicle: saline
[15] = dose: 200.0 mg/kg/injection, schedule: Q01DX001 (ip), vehicle: saline
[16] = dose: 100.0 mg/kg/injection, schedule: Q04DX002 (ip), vehicle: Klucel (hydroxypropylcellulose) (HPC)
[17] = dose: 200.0 mg/kg/injection, schedule: Q04DX002 (ip), vehicle: Klucel (hydroxypropylcellulose) (HPC)
[18] = dose: 400.0 mg/kg/injection, schedule: Q04DX002 (ip), vehicle: Klucel (hydroxypropylcellulose) (HPC)
[19] = dose: 100.0 mg/kg/injection, schedule: Q01DX001 (ip), vehicle: saline with Tween-80
[20] = dose: 200.0 mg/kg/injection, schedule: Q01DX001 (ip), vehicle: saline with Tween-80
[21] = dose: 100.0 mg/kg/injection, schedule: Q04DX002 (ip), vehicle: saline with Tween-80
[22] = dose: 200.0 mg/kg/injection, schedule: Q04DX002 (ip), vehicle: saline with Tween-80
[23] = dose: 50.0 mg/kg/injection, schedule: Q01DX009 (ip), vehicle: saline with Tween-80
[24] = dose: 25.0 mg/kg/injection, schedule: Q04DX002 (ip), vehicle: saline
[25] = dose: 50.0 mg/kg/injection, schedule: Q04DX002 (ip), vehicle: saline
[26] = dose: 100.0 mg/kg/injection, schedule: Q04DX002 (ip), vehicle: saline
[27] = dose: 25.0 mg/kg/injection, schedule: Q04DX002 (ip), vehicle: saline with Tween-80
[28] = dose: 50.0 mg/kg/injection, schedule: Q04DX002 (ip), vehicle: saline with Tween-80

Measured: T/C

Cc1ccc(NC(=O)ON(C)C)cc1
inactive: dose: 25.0 mg/kg/injection, schedule: Q04DX002 (ip), vehicle: other 99 % of control | dose: 50.0 mg/kg/injection, schedule: Q04DX002 (ip), vehicle: other 96 % of control | dose: 100.0 mg/kg/injection, schedule: Q04DX002 (ip), vehicle: other 92 % of control

COc1ccc(NC(=O)CC(C)(C)C(=O)O)cc1
inactive: [1] 94 % of control | [2] 92 % of control | [3] 90 % of control

COc1ccc(-c2cnc(=O)[nH]c2N)cc1
inactive: [4] 101 % of control | [5] 104 % of control

COCCCNP1(=O)OCC(C)([N+](=O)[O-])CO1 (stereo not drawn)
inactive: [6] 100 % of control | [7] 94 % of control | [8] 94 % of control | [9] 92 % of control

CC1(C)N=C(N)N=C(N)N1c1ccc(CNC(=O)Nc2ccc(S(=O)(=O)F)cc2)c(Cl)c1
inactive: dose: 45.0 mg/kg/injection, schedule: Q01DX009 (ip), vehicle: saline 111 % of control | dose: 67.0 mg/kg/injection, schedule: Q01DX009 (ip), vehicle: saline 120 % of control

Cc1cc(OC(=O)Nc2ccc(Cl)c(Cl)c2)ccc1Cl
inactive: [10] 102 % of control | [4] 96 % of control | [11] 98 % of control | [5] 104 % of control | [12] 95 % of control | [13] 101 % of control

Cc1coc(NS(=O)(=O)c2ccc(N=Nc3ccc(O)c4ncccc34)cc2)c1C
inactive: [14] 102 % of control | [15] 108 % of control

O=C(O)c1cc(Br)ccc1O
inactive: [16] 98 % of control | [17] 98 % of control | [18] 102 % of control

CC(C)OC(=S)SCC(=O)c1ccccc1
inactive: [16] 92 % of control | [17] 101 % of control | [18] 99 % of control

NC(=O)c1cc([N+](=O)[O-])c(Cl)c([N+](=O)[O-])c1
inactive: dose: 20.0 mg/kg/injection, schedule: Q04DX003 (ip), vehicle: Klucel (hydroxypropylcellulose) (HPC) 97 % of control | dose: 40.0 mg/kg/injection, schedule: Q04DX003 (ip), vehicle: Klucel (hydroxypropylcellulose) (HPC) 97 % of control | dose: 80.0 mg/kg/injection, schedule: Q04DX003 (ip), vehicle: Klucel (hydroxypropylcellulose) (HPC) 103 % of control

COc1cc(C)ccc1C(=O)c1ccc(C)cc1OC
inactive: [19] 100 % of control | [1] 98 % of control | [4] 86 % of control | [20] 100 % of control | [2] 92 % of control | [5] 93 % of control | dose: 400.0 mg/kg/injection, schedule: Q01DX001 (ip), vehicle: saline with Tween-80 92 % of control | [3] 103 % of control | [13] 93 % of control

CC(=O)ON1C(=O)c2cccc3cccc(c23)C1=O
inactive: [21] 102 % of control | [22] 109 % of control

COc1ccc(Cl)cc1NC(=O)Oc1ccc(-c2ccccc2)cc1Cl
inactive: [1] 99 % of control | [2] 92 % of control | [3] 91 % of control

Nc1ncnc2c1ncn2C1OC(COC2C(CO)OC(OC(C(=O)O)C(O)C(OP(=O)(O)O)C(O)C(=O)O)C(O)C2O)C(O)C1O (stereo not drawn)
inactive: dose: 0.25 mg/kg/injection, schedule: Q04DX002 (ip), vehicle: saline + alcohol 91 % of control | dose: 0.5 mg/kg/injection, schedule: Q04DX002 (ip), vehicle: saline + alcohol 94 % of control | dose: 1.0 mg/kg/injection, schedule: Q04DX002 (ip), vehicle: saline + alcohol 98 % of control

COc1ccc2c(c1OC)CCCCC2=O
inactive: [23] 102 % of control | [1] 98 % of control | [2] 91 % of control

CC1CCOC(C)(CCl)O1 (stereo not drawn)
inactive: [21] 98 % of control | [22] 95 % of control | dose: 400.0 mg/kg/injection, schedule: Q04DX002 (ip), vehicle: saline with Tween-80 98 % of control

Cc1ccc(NC(=S)NC(=O)C(C)Oc2ccccc2)cc1Cl (stereo not drawn)
inactive: [10] 94 % of control | [4] 100 % of control | [11] 101 % of control | [5] 101 % of control | [12] 101 % of control | [13] 109 % of control

CN(CCCN)CCCN
inactive: [24] 115 % of control | [25] 96 % of control | [26] 100 % of control and 104 % of control

CCCC(=O)c1cc(C)ccc1OC
inactive: [7] 103 % of control | [8] 106 % of control | [9] 106 % of control

CN(C)CC(C)(C)C(=O)c1ccccc1
inactive: [24] 100 % of control | [25] 100 % of control | [26] 104 % of control

O=C1c2ccccc2-c2cc([N+](=O)[O-])c(NC(=O)C(Cl)Cl)cc21
inactive: [7] 96 % of control | [8] 107 % of control | [9] 102 % of control

CN(C)N=Nc1ccc(Cl)cc1
inactive: dose: 37.5 mg/kg/injection, schedule: Q04DX003 (ip), vehicle: saline with Tween-80 96 % of control | dose: 50.0 mg/kg/injection, schedule: Q01DX001 (ip), vehicle: saline with Tween-80 106 % of control | [23] 86 % of control | dose: 75.0 mg/kg/injection, schedule: Q04DX003 (ip), vehicle: saline with Tween-80 97 % of control | [19] 104 % of control | [14] 103 % of control | [1] 87 % of control | dose: 150.0 mg/kg/injection, schedule: Q04DX003 (ip), vehicle: saline with Tween-80 104 % of control | [20] 113 % of control | [15] 107 % of control | [2] 90 % of control | dose: 300.0 mg/kg/injection, schedule: Q04DX003 (ip), vehicle: saline with Tween-80 108 % of control | dose: 400.0 mg/kg/injection, schedule: Q01DX001 (ip), vehicle: saline 97 % of control | [3] 91 % of control

CC(C)C(=O)OCC1CC2C=CC1C2 (stereo not drawn)
inactive: dose: 222.0 mg/kg/injection, schedule: Q01DX Z (ip), vehicle: saline 96 % of control | dose: 333.0 mg/kg/injection, schedule: Q01DX Z (ip), vehicle: saline 104 % of control | dose: 500.0 mg/kg/injection, schedule: Q01DX Z (ip), vehicle: saline 98 % of control

CCOc1ccc(CC(=O)Nc2cc([N+](=O)[O-])ccc2NCCN(CC)CC)cc1
inactive: dose: 25.0 mg/kg/injection, schedule: Q04DX003 (ip), vehicle: other 97 % of control | dose: 50.0 mg/kg/injection, schedule: Q04DX003 (ip), vehicle: other 97 % of control | dose: 100.0 mg/kg/injection, schedule: Q04DX003 (ip), vehicle: other 95 % of control and 111 % of control

CCOP(=O)(Nc1ccc2oc(=O)c3ccccc3c2c1)OCC
inactive: [6] 100 % of control | [7] 100 % of control | [8] 110 % of control | [9] 97 % of control

Cc1c(-c2ccccc2Br)nc2ccccc2c1C(=O)O
inactive: [14] 96 % of control | [15] 89 % of control

COc1ccc(CC(=O)NCCc2ccccc2)cc1
inactive: [7] 96 % of control | [8] 98 % of control | [9] 96 % of control

Cc1onc(-c2ccccc2Cl)c1C(=O)NC(=S)NC1CC(C)CC(C)(C)C1 (stereo not drawn)
inactive: [27] 97 % of control | [28] 90 % of control | [21] 90 % of control

O=C(Nc1cccc(Cl)c1)Oc1c(Cl)cc(S(=O)(=O)F)cc1Cl
inactive: dose: 25.0 mg/kg/injection, schedule: Q01DX009 (ip), vehicle: saline with Tween-80 97 % of control | [27] 101 % of control | [23] 93 % of control | [28] 93 % of control | [1] 100 % of control | [21] 96 % of control and 90 % of control

c1cc2c3c(c1)CCC3CCC2 (stereo not drawn)
inactive: dose: 100.0 mg/kg/injection, schedule: Q04DX003 (ip), vehicle: saline with Tween-80 90 % of control | dose: 200.0 mg/kg/injection, schedule: Q04DX003 (ip), vehicle: saline with Tween-80 95 % of control | dose: 400.0 mg/kg/injection, schedule: Q04DX003 (ip), vehicle: saline with Tween-80 97 % of control
